According to patent publication US6080755A, “1,9-diazabicyclo[4.3.0]nona-3,8-diene derivatives” (Wyeth Lederle Japan, Ltd., priority 1995, dated 2000):

tested on: Isolated Rat Hearts; assay: Cardioprotective Effect in Ischemia/Reperfusion Model of Isolated Rat Hearts; parameters: species or system Male Sprague-Dawley rats; conditions: 10^-5 mol of test compound in 0.04% DMSO; 25 min global ischemia, after reperfusion for 30 minutes
Description: Cardioprotective Effect in Ischemia/Reperfusion Model of Isolated Rat Hearts:
Male Sprague-Dawley rats (300-500 g) were used. The rats were anesthetized using 40 mg/kg of sodium pentobarbital (i.p.) after treating with heparin (i.v. 1000 U/kg). The hearts were excised and moved quickly to a Langendorlf apparatus where they were perfused with Krebs-Henseleit bicarbonate buffer (118 mM of NaCl; 4.7 mM of KCl; 2.55 mM of CaCl2; 1.18 mM of KH2 PO4; 24.88 mM of NaHCO3; 11.1 mM of glucose) bubbled with mixture gas of 95% oxygen and 5% carbon dioxide at a constant perfusion pressure (75 mmHg). The parameters of cardiac function were determined as follows.
The physiological saline-filled latex balloon was inserted into the left ventricle and connected to a pressure transducer for measurement of left ventricular pressure (LVP). The volume of the balloon was adjusted to produce an LV end-diastolic pressure at 5-10 mmHg. The heart rate was determined with a tachometer and coronary flow was determined with an extra-corporeal electromagnetic flow tube.
For the equilibration, the hearts were perfused for initial 15-20 minutes. Then, treatment with the test compounds was begun 15 minutes before the onset of ischemia. Global ischemia was initiated by shutting off the perfusate flow and this was maintained for 25 minutes. The hearts were submerged in 37° C. buffer during ischemia. Reperfusion was then begun with the test compounds and the hearts were allowed to recover for 30 minutes. The cardiac function was measured before the treatment of the test compounds, before ischemia and after reperfusion. The hearts were treated with 10^-5 mol of the test compounds dissolved in 0.04% of dimethylsulfoxide (DMSO), in comparison with the vehicle, i.e., 0.04% of DMSO alone, in the perfusate.
The cardioprotective effects of the test compounds were evaluated on the basis of the extent of recovery of LVP after reperfusion for 30 minutes.

Row | Molecule | LVDP(%): recovery of LVP, left ventricular developed pressure against the LVP before ischemia as 100% [%]
1 | CCN(CC)C(=O)C1=NN2C(c3ccccc3)C=CC(c3ccccc3)C2(C(=O)OC)C1O (centres unmarked) [Compound No. 173, 8-Diethylcarbamoyl-2,5-diphenyl-7-hydroxy-6-methoxycarbonyl-1,9-diazabicyclo[4.3.0]nona-3,8-diene] | 61.0
2 | CCCOC(=O)C1=NN2CC(C)=C(C)CC2(C(=O)OCCC)C1O (centres unmarked) [Compound No. 124, 3,4-Dimethyl-6,8-dipropoxycarbonyl-7-hydroxy-1,9-diazabicyclo[4.3.0]nona-3,8-diene] | 84.0
3 | CCOC(=O)C1=NN2CC(C)=C(C)CC2(C(=O)OCC)C1N (centres unmarked) [Compound No. 81, 7-Amino-6,8-diethoxycarbonyl-3,4-dimethyl-1,9-diazabicyclo[4.3.0]nona-3,8-diene] | 56.2
4 | 6,8-Diethoxycarbonyl-3(or 4)-methy-1,9-diazabicyclo [4.3.0]nona-3,8-dien-7-ol [Compound No. 35] | 50.6
5 | CCOC(=O)C1=NN2CC(C)=C(C)CC2(C(=O)OCC)C1O (centres unmarked) [Compound No. 29, 6,8-Diethoxycarbonyl-3,4-dimethylbicyclo[4.3.0]-1,9-diazanona-3,8-dien-7-ol] | 44.2
6 | COC(=O)C1=NN2C(c3ccccc3)C=CC(c3ccccc3)C2(C(=O)OC)C1O (centres unmarked) [Compound No. 31, 6,8-Dimethoxycarbonyl-2,5-diphenyl-1,9-diazabicyclo [4.3.0]nona-3,8-dien-7-ol] | 85.1
7 | COC(=O)C1=NN2C(c3cccc([N+](=O)[O-])c3)C=CC(c3cccc([N+](=O)[O-])c3)C2(C(=O)OC)C1O (centres unmarked) [Compound No. 48, 6,8-Dimethoxycarbonyl-2,5-bis(3-nitrophenyl)-7-hydroxy-1,9-diazabicyclo[4.3.0]nona-3,8-diene] | 72.4
8 | COC(=O)C1=NN2C(c3ccc([N+](=O)[O-])cc3)C=CC(c3ccc([N+](=O)[O-])cc3)C2(C(=O)OC)C1O (centres unmarked) [Compound No. 53, 6,8-Dimethoxycarbonyl-2,5-di(4-nitro)phenyl-7-hydroxy-1,9-diazabicyclo[4.3.0]nona-3,8-diene] | 60.0
9 | COC(=O)C1=NN2C(c3ccc(C#N)cc3)C=CC(c3ccc(C#N)cc3)C2(C(=O)OC)C1O (centres unmarked) [Compound No. 50, 6,8-Dimethoxycarbonyl-2,5-di(4-cyano)phenyl-7-hydroxy-1,9-diazabicyclo[4.3.0]nona-3,8-diene] | 69.8
10 | COC(=O)C1=NN2C(c3ccc(C)cc3)C=CC(c3ccc(C)cc3)C2(C(=O)OC)C1O (centres unmarked) [Compound No. 52, 6,8-Dimethoxycarbonyl-2,5-di-p-tolyl-7-hydroxy-1,9-diazabicyclo[4.3.0]nona-3,8-diene] | 49.3
11 | COC(=O)C1=NN2C(c3ccccc3)C=CC(c3ccccc3)C2(C(=O)OC)C1N (centres unmarked) [Compound No. 94, 7-Amino-6,8-dimethoxycarbonyl-2,5-diphenyl-1,9-diazabicyclo[4.3.0]nona-3,8-diene] | 73.5
12 | COC(=O)C1=NN2C(c3ccc(C(C)=O)cc3)C=CC(c3ccc(C(C)=O)cc3)C2(C(=O)OC)C1O (centres unmarked) [Compound No. 51, 2,5-Bis-(4-acetylphenyl)-6,8-dimethoxycarbonyl-7-hydroxy-1,9-diazabicyclo[4.3.0]nona-3,8-diene] | 55.0
13 | CCOC(=O)C1=NN2CC(C)=C(C)CC2(C(=O)OCC)C1S (centres unmarked) [Compound No. 82, 6,8-Diethoxycarbonyl-3,4-dimethyl-7-mercapto-1,9-diazabicyclo[4.3.0]nona-3,8-diene] | 61.5
14 | CCCOC(=O)C1=NN2C(c3ccccc3)C=CC(c3ccccc3)C2(C(=O)OCC)C1O (centres unmarked) [Compound No. 139, 2,5-Diphenyl-6-ethoxycarbonyl-7-hydroxy-8-propoxycarbonyl-1,9-diazabicyclo[4.3.0]nona-3,8-diene] | 62.5
